Data published in ChEMBL document CHEMBL1130408, “Repromicin derivatives with potent antibacterial activity against Pasteurella multocida” (1997).
In brackets after ≈: the same amount, converted by molar mass.

How the values were obtained:
Pasteurella multocida = experiment: Minimum inhibitory concentration required to inhibit Pasteurella multocida 59A006 in vitro; assay type: functional
Mus musculus = organism: Mus musculus; experiment: Protected dose which protects 50% of challenged mice from death owing to the Pasteurella multocida (59A006) infection; assay type: functional; conditions: read-out: PD50

| SMILES | MIC (Pasteurella multocida) [µg/mL] | ED50 (Mus musculus) [mg/kg] |
| --- | --- | --- |
| CC[C@H]1OC(=O)CC(O)[C@H](C)[C@@H](O[C@@H]2O[C@H](C)C[C@H](N(C)C)[C@H]2O)[C@@H](CCNCCO)C[C@@H](C)C(=O)/C=C/C(C)=C/[C@@H]1C (stereo not given in full) | 0.2 (≈ 0.327 µM) | 10 |
| CC[C@H]1OC(=O)CC(O)[C@H](C)[C@@H](O[C@@H]2O[C@H](C)C[C@H](N(C)C)[C@H]2O)[C@@H](CCN2CCOCC2)C[C@@H](C)C(=O)/C=C/C(C)=C/[C@@H]1C (stereo not given in full) | 0.78 (≈ 1.22 µM) | > 150 |
| CC[C@H]1OC(=O)CC(O)[C@H](C)[C@@H](O[C@@H]2O[C@H](C)C[C@H](N(C)C)[C@H]2O)[C@@H](CCNCC(C)(C)CO)C[C@@H](C)C(=O)/C=C/C(C)=C/[C@@H]1C (stereo not given in full) | 0.05 (≈ 0.0766 µM) | 26 |
| CC[C@H]1OC(=O)CC(O)[C@H](C)[C@@H](O[C@@H]2O[C@H](C)C[C@H](N(C)C)[C@H]2O)[C@@H](CCNC(CO)CO)C[C@@H](C)C(=O)/C=C/C(C)=C/[C@@H]1C (stereo not given in full) | 0.39 (≈ 0.609 µM) | 31 |
| CC[C@H]1OC(=O)CC(O)[C@H](C)[C@@H](O[C@@H]2O[C@H](C)C[C@H](N(C)C)[C@H]2O)[C@@H](CCN(CCCN(C)C)C(=O)CNC)C[C@@H](C)C(=O)/C=C/C(C)=C/[C@@H]1C (stereo not given in full) | 1.56 (≈ 2.16 µM) | 6 |
| CC[C@H]1OC(=O)CC(O)[C@H](C)[C@@H](O[C@@H]2O[C@H](C)C[C@H](N(C)C)[C@H]2O)[C@@H](CCN2CCCCCC2)C[C@@H](C)C(=O)/C=C/C(C)=C/[C@@H]1C (stereo not given in full) | 0.1 (≈ 0.154 µM) | > 200 |
| CC[C@H]1OC(=O)CC(O)[C@H](C)[C@@H](O[C@@H]2O[C@H](C)[C@@H](O)[C@H](N(C)C)[C@H]2O)[C@@H](CCN(C)CCCN(C)C)C[C@@H](C)C(=O)/C=C/C(C)=C/[C@@H]1CO[C@@H]1O[C@H](C)[C@@H](O)[C@@H](OC)[C@H]1OC (stereo not given in full) | 3.13 (≈ 3.59 µM) | 41 |
| CC[C@H]1OC(=O)CC(O)[C@H](C)[C@@H](O[C@@H]2O[C@H](C)C[C@H](N(C)C)[C@H]2O)[C@@H](CCN2CCCCC2)C[C@@H](C)C(=O)/C=C/[C@]2(C)O[C@H]2[C@@H]1C (stereo not given in full) | 0.2 (≈ 0.307 µM) | 114 |
| CCC1OC(=O)CC(O)C(C)C(O[C@@H]2O[C@H](C)C[C@H](N(C)C)[C@H]2O)C(CC=O)CC(C)C(=O)/C=C/C(C)=C/C1C (stereo not given in full) | 0.39 (≈ 0.689 µM) | > 200 |
| CCNCC[C@H]1C[C@@H](C)C(=O)/C=C/C(C)=C/[C@H](C)[C@@H](CC)OC(=O)CC(O)[C@H](C)[C@H]1O[C@@H]1O[C@H](C)C[C@H](N(C)C)[C@H]1O (stereo not given in full) | 0.2 (≈ 0.336 µM) | > 150 |
| CC[C@H]1OC(=O)CC(O)[C@H](C)[C@@H](O[C@@H]2O[C@H](C)C[C@H](N(C)C)[C@H]2O)[C@@H](CCN2CCC2)C[C@@H](C)C(=O)/C=C/C(C)=C/[C@@H]1C (stereo not given in full) | 0.2 (≈ 0.33 µM) | 46 |
| CC[C@H]1OC(=O)CC(O)[C@H](C)[C@@H](O[C@@H]2O[C@H](C)C[C@H](N(C)C)[C@H]2O)[C@@H](CCN(CC)CC)C[C@@H](C)C(=O)/C=C/[C@]2(C)O[C@H]2[C@@H]1C (stereo not given in full) | 0.78 (≈ 1.22 µM) | 123 |
| CC[C@H]1OC(=O)CC(O)[C@H](C)[C@@H](O[C@@H]2O[C@H](C)C[C@H](N(C)C)[C@H]2O)[C@@H](CCN(C)CCCNC)C[C@@H](C)C(=O)/C=C/C(C)=C/[C@@H]1C (stereo not given in full) | 0.78 (≈ 1.2 µM) | 4 |
| CC[C@H]1OC(=O)CC(O)[C@H](C)[C@@H](O[C@@H]2O[C@H](C)C[C@H](N(C)C)[C@H]2O)[C@@H](CCN(C)CC)C[C@@H](C)C(=O)/C=C/C(C)=C/[C@@H]1C (stereo not given in full) | 0.2 (≈ 0.328 µM) | 150 |
| CC[C@H]1OC(=O)CC(O)[C@H](C)[C@@H](O[C@@H]2O[C@H](C)C[C@H](N(C)C)[C@H]2O)[C@@H](CCN(C)CCCN(C)C)C[C@@H](C)C(=O)/C=C/C(C)=C/[C@@H]1C (stereo not given in full) | 0.1 (≈ 0.15 µM) | 26 |
| CC[C@H]1OC(=O)CC(O)[C@H](C)[C@@H](O[C@@H]2O[C@H](C)[C@@H](O)[C@H](N(C)C)[C@H]2O)[C@@H](CCN(C)CCCNC)C[C@@H](C)C(=O)/C=C/C(C)=C/[C@@H]1CO[C@@H]1O[C@H](C)[C@@H](O)[C@@H](OC)[C@H]1OC (stereo not given in full) | 25 (≈ 29.1 µM) | – |
| CC[C@H]1OC(=O)CC(O)[C@H](C)[C@@H](O[C@@H]2O[C@H](C)C[C@H](N(C)C)[C@H]2O)[C@@H](CCN(C)CCCN(C)C(=O)[C@H](C)N)C[C@@H](C)C(=O)/C=C/C(C)=C/[C@@H]1C (stereo not given in full) | 0.39 (≈ 0.539 µM) | 5 |
| CO[C@@H]1[C@@H](O[C@@H]2O[C@H](C)[C@@H](O[C@H]3C[C@@](C)(O)[C@@H](OC(=O)CC(C)C)[C@@H](C)O3)[C@@H](N(C)C)[C@H]2O)[C@@H](CC=O)C[C@@H](C)C(=O)/C=C/C=C/C[C@@H](C)OC(=O)C[C@H]1OC(C)=O | 6.25 (≈ 7.57 µM) | > 150 |

| SMILES | MIC (Pasteurella multocida) [µg/mL] | ED50 (Mus musculus) [mg/kg] |
| --- | --- | --- |
| CC[C@H]1OC(=O)CC(O)[C@H](C)[C@@H](O[C@@H]2O[C@H](C)C[C@H](N(C)C)[C@H]2O)[C@@H](CCNCCCN(C)C)C[C@@H](C)C(=O)/C=C/C(C)=C/[C@@H]1C (stereo not given in full) | 0.39 (≈ 0.598 µM) | 5 |
| CC[C@H]1OC(=O)CC(O)[C@H](C)[C@@H](O[C@@H]2O[C@H](C)C[C@H](N(C)C)[C@H]2O)[C@@H](CCN2CCCC2)C[C@@H](C)C(=O)/C=C/[C@]2(C)O[C@H]2[C@@H]1C (stereo not given in full) | 0.78 (≈ 1.22 µM) | > 150 |
| CC[C@H]1OC(=O)CC(O)[C@H](C)[C@@H](O[C@@H]2O[C@H](C)C[C@H](N(C)C)[C@H]2O)[C@@H](CCNC2C(O)CCCC2O)C[C@@H](C)C(=O)/C=C/C(C)=C/[C@@H]1C (stereo not given in full) | 0.2 (≈ 0.294 µM) | 11 |
| CC[C@H]1OC(=O)CC(O)[C@H](C)[C@@H](O[C@@H]2O[C@H](C)C[C@H](N(C)C)[C@H]2O)[C@@H](CCN(C)C)C[C@@H](C)C(=O)/C=C/[C@]2(C)O[C@H]2[C@@H]1C (stereo not given in full) | 0.39 (≈ 0.638 µM) | > 150 |
| CC[C@H]1OC(=O)CC(O)[C@H](C)[C@@H](O[C@@H]2O[C@H](C)C[C@H](N(C)C)[C@H]2O)[C@@H](CCN(CC)CC)C[C@@H](C)C(=O)/C=C/C(C)=C/[C@@H]1C (stereo not given in full) | 0.39 (≈ 0.626 µM) | 141 |
| CC[C@H]1OC(=O)C[C@@H](O)[C@H](C)[C@@H](O[C@@H]2O[C@H](C)C[C@H](N(C)C)[C@H]2O)[C@@H](CC=O)C[C@@H](C)C(=O)/C=C/[C@]2(C)O[C@H]2[C@@H]1C [ROSARAMICIN] | 0.2 (≈ 0.344 µM) | 68 |
| CC[C@H]1OC(=O)CC(O)[C@H](C)[C@@H](O[C@@H]2O[C@H](C)[C@@H](O)[C@H](N(C)C)[C@H]2O)[C@@H](CCN(C)CCN(C)C)C[C@@H](C)C(=O)/C=C/C(C)=C/[C@@H]1CO[C@@H]1O[C@H](C)[C@@H](O)[C@@H](OC)[C@H]1OC (stereo not given in full) | 3.13 (≈ 3.65 µM) | > 50 |
| CC[C@H]1OC(=O)CC(O)[C@H](C)[C@@H](O[C@@H]2O[C@H](C)C[C@H](N(C)C)[C@H]2O)[C@@H](CCN(C)CCN(C)C(=O)[C@H](C)N)C[C@@H](C)C(=O)/C=C/C(C)=C/[C@@H]1C (stereo not given in full) | 0.05 (≈ 0.0705 µM) | 12 |
| CC[C@H]1OC(=O)CC(O)[C@H](C)[C@@H](O[C@@H]2O[C@H](C)C[C@H](N(C)C)[C@H]2O)[C@@H](CCN(CCCN(C)C)C(=O)[C@H](C)N)C[C@@H](C)C(=O)/C=C/C(C)=C/[C@@H]1C (stereo not given in full) | 0.39 (≈ 0.539 µM) | 3 |
| CC[C@H]1OC(=O)CC(O)[C@H](C)[C@@H](O[C@@H]2O[C@H](C)C[C@H](N(C)C)[C@H]2O)[C@@H](CCN(C)CCCN(C)C(=O)CNC)C[C@@H](C)C(=O)/C=C/C(C)=C/[C@@H]1C (stereo not given in full) | 0.39 (≈ 0.539 µM) | 6 |
| CC[C@H]1OC(=O)CC(O)[C@H](C)[C@@H](O[C@@H]2O[C@H](C)C[C@H](N(C)C)[C@H]2O)[C@@H](CCN(C)CCNC)C[C@@H](C)C(=O)/C=C/C(C)=C/[C@@H]1C (stereo not given in full) | 0.2 (≈ 0.314 µM) | > 20 |
| CC[C@H]1OC(=O)CC(O)[C@H](C)[C@@H](O[C@@H]2O[C@H](C)C[C@H](N(C)C)[C@H]2O)[C@@H](CCN(C)CCO)C[C@@H](C)C(=O)/C=C/C(C)=C/[C@@H]1C (stereo not given in full) | 0.2 (≈ 0.32 µM) | 45 |
| CC[C@H]1OC(=O)CC(O)[C@H](C)[C@@H](O[C@@H]2O[C@H](C)C[C@H](N(C)C)[C@H]2O)[C@@H](CCNCCN(C)C)C[C@@H](C)C(=O)/C=C/C(C)=C/[C@@H]1C (stereo not given in full) | 0.2 (≈ 0.314 µM) | 100 |
| CC[C@H]1OC(=O)CC(O)[C@H](C)[C@@H](O[C@@H]2O[C@H](C)C[C@H](N(C)C)[C@H]2O)[C@@H](CCNC(C)(C)C)C[C@@H](C)C(=O)/C=C/C(C)=C/[C@@H]1C (stereo not given in full) | 0.39 (≈ 0.626 µM) | 150 |
| CC[C@H]1OC(=O)CC(O)[C@H](C)[C@@H](O[C@@H]2O[C@H](C)C[C@H](N(C)C)[C@H]2O)[C@@H](CCN2CCCCC2)C[C@@H](C)C(=O)/C=C/C(C)=C/[C@@H]1C (stereo not given in full) | 0.2 (≈ 0.315 µM) | 150 |
| CC[C@H]1OC(=O)CC(O)[C@H](C)[C@@H](O[C@@H]2O[C@H](C)C[C@H](N(C)C)[C@H]2O)[C@@H](CCN2CC(C)CC(C)C2)C[C@@H](C)C(=O)/C=C/[C@]2(C)O[C@H]2[C@@H]1C (stereo not given in full) | 0.2 (≈ 0.295 µM) | > 150 |
| CC[C@H]1OC(=O)CC(O)[C@H](C)[C@@H](O[C@@H]2O[C@H](C)[C@@H](O)[C@H](N(C)C)[C@H]2O)[C@@H](CCNCCCN(C)C)C[C@@H](C)C(=O)/C=C/C(C)=C/[C@@H]1CO[C@@H]1O[C@H](C)[C@@H](O)[C@@H](OC)[C@H]1OC (stereo not given in full) | 12.5 (≈ 14.6 µM) | – |
| CC[C@H]1OC(=O)CC(O)[C@H](C)[C@@H](O[C@@H]2O[C@H](C)C[C@H](N(C)C)[C@H]2O)[C@@H](CCN2CCN(C)CC2)C[C@@H](C)C(=O)/C=C/C(C)=C/[C@@H]1C (stereo not given in full) | 0.39 (≈ 0.6 µM) | > 150 |
